Measured values as given in patent US9511050B2, “Methods and compositions for treating cancer” (GEORGETOWN UNIVERSITY, priority 2013, dated 2016).
Like-named read-outs stand apart in the source and are kept apart here.

What was measured:
Format in all cases: cell-based
[1] = system: PANC1 (a human pancreatic carcinoma); assay: IC50 activity in PANC1 cells
Description: (§1) Compounds provided in Table 2 were prepared using methods similar to those described herein. The structures and IC50 activities of particular compounds in PANC1 (a human pancreatic carcinoma), TC32 (human ESFT cell line), and TC71 (human ESFT cell line) cells are summarized in Table 2.

[2] = system: TC32 (human ESFT cell line); assay: IC50 activity in TC32 cells
Description: as §1

[3] = system: TC71 (human ESFT cell line); assay: IC50 activity in TC71 cells
Description: as §1
Growth inhibition of ESFT cells was measured for various concentrations of particular compounds.

[4] = Homo sapiens, PANC-1, PANC1 cells
[5] = Homo sapiens, TC-32, TC32 cells
[6] = Homo sapiens, TC-71, TC71 cells
[7] = PANC1 cells, read-out: IC50 PANC 1

IC50 [1, 4]	IC50 [2, 5]	IC50 [3, 6]	IC50 ([2]; TC32 cells)	IC50 [1, 7]	IC50 ([3]; TC71 cells)	Structure (SMILES)
≥ 40 µM	≥ 40 µM	≥ 40 µM				COc1ccc(C(=O)CC2(O)C(=O)Nc3c(Cl)cccc32)cc1 (centres unmarked) [PT-2-52]
10.9 µM	2.95 µM	6.94 µM				O=C(CC1(O)C(=O)Nc2c(Cl)ccc(Cl)c21)c1ccc(C(F)(F)F)cc1 (centres unmarked) [PT-1-15]
≥ 40 µM	≥ 40 µM	≥ 40 µM				CCCC(=O)CC1(O)C(=O)N(C)c2c(Cl)ccc(Cl)c21 (centres unmarked) [PT-2-71]
12.7 µM	8.91 µM	26 µM				O=C(CC1(O)C(=O)Nc2c(Cl)ccc(Cl)c21)c1ccc(Br)cc1 (centres unmarked) [YK-4-283]
≥ 40 µM	≥ 40 µM	≥ 40 µM				COc1ccc(C(=O)CC2(O)C(=O)Nc3cccc(Cl)c32)cc1 (centres unmarked) [PT-1-275]
≥ 40 µM	1.03 µM	1.64 µM				COc1ccc(C(=O)/C=C2\C(=O)Nc3c(Cl)ccc(Cl)c32)cc1 [PT-1-33]
11 µM	≥ 40 µM	23.9 µM				O=C(CC1(O)C(=O)Nc2c(Cl)ccc(Cl)c21)c1ccc(Cl)cc1 (centres unmarked) [YK-4-275]
≥ 40 µM	≥ 40 µM	≥ 40 µM				O=C(CC1(O)C(=O)Nc2c(Cl)ccc(Cl)c21)c1ccccc1Cl (centres unmarked) [YK-4-282]
≥ 40 µM	≥ 40 µM	≥ 40 µM				COc1ccc(CC(=O)CC2(O)C(=O)Nc3c(Cl)ccc(Cl)c32)cc1 (centres unmarked) [PT-2-59]
2.2 µM	≥ 40 µM	4.08 µM				CN(C)c1ccc(C(=O)/C=C2/C(=O)Nc3c(Cl)ccc(Cl)c32)cc1 [PT-1-53]
≥ 40 µM	2.18 µM		2.31 µM			COc1ccc(C(=O)CC2(O)C(=O)N(C)c3c(Cl)ccc(Cl)c32)cc1 (centres unmarked) [PT-2-69]
≥ 40 µM	≥ 40 µM	≥ 40 µM				O=C(CC1(O)C(=O)Nc2c(Cl)ccc(Cl)c21)c1ccc(OC(F)(F)F)cc1 (centres unmarked) [PT-1-16]
11 µM	1.41 µM	5.66 µM				CCOc1ccc(C(=O)/C=C2\C(=O)Nc3c(Cl)ccc(Cl)c32)cc1 [PT-1-43]
≥ 40 µM	≥ 40 µM	≥ 40 µM				COc1ccccc1C(=O)CC1(O)C(=O)Nc2c(Cl)ccc(Cl)c21 (centres unmarked) [PT-1-12]
≥ 40 µM	≥ 40 µM	≥ 40 µM				O=C(CC1(O)C(=O)N(Cc2ccccc2)c2c(Cl)ccc(Cl)c21)c1ccc(Cl)cc1 (centres unmarked) [YK-4-276]
5.41 µM	1.05 µM	1.81 µM	1.66 µM	6.76 µM	2.32 µM	COc1ccc(C(=O)/C=C2\C(=O)Nc3c(Cl)ccc(Cl)c32)c(OC)c1 [PT-1-39]
≥ 40 µM	10.3 µM	12.3 µM				N#Cc1ccc(C(=O)CC2(O)C(=O)Nc3c(Cl)ccc(Cl)c32)cc1 (centres unmarked) [PT-1-11]
≥ 40 µM	12.4 µM	≥ 40 µM				COc1ccc(C(=O)CC2(O)C(=O)Nc3ccc(Cl)cc32)cc1 (centres unmarked) [PT-2-56]
≥ 40 µM	≥ 40 µM	≥ 40 µM				O=C(CC1(O)C(=O)Nc2c(Cl)ccc(Cl)c21)c1ccc(I)cc1 (centres unmarked) [YK-4-277]
≥ 40 µM	≥ 40 µM	≥ 40 µM				COc1cc(C(=O)CC2(O)C(=O)Nc3c(Cl)ccc(Cl)c32)cc(OC)c1OC (centres unmarked) [PT-1-13]
≥ 40 µM	4.63 µM	9.15 µM				O=C(CC1(O)C(=O)Nc2c(Cl)ccc(Cl)c21)c1ccc([N+](=O)[O-])cc1 (centres unmarked) [YK-4-286]
≥ 40 µM	8.99 µM	≥ 40 µM				COc1cc(OC)cc(C(=O)CC2(O)C(=O)Nc3c(Cl)ccc(Cl)c32)c1 (centres unmarked) [PT-1-22]

IC50 [1, 4]	IC50 [2, 5]	IC50 [3, 6]	IC50 ([2]; TC32 cells)	IC50 [1, 7]	IC50 ([3]; TC71 cells)	Structure (SMILES)
≥ 40 µM	≥ 40 µM	≥ 40 µM				O=C(CC1(O)C(=O)Nc2c(Cl)ccc(Cl)c21)c1ccc(O)cc1 (centres unmarked) [YK-4-289]
≥ 40 µM	≥ 40 µM	≥ 40 µM				COc1cccc(C(=O)CC2(O)C(=O)Nc3c(Cl)ccc(Cl)c32)c1 (centres unmarked) [PT-1-18]
≥ 40 µM	2.7 µM	4.42 µM				COc1ccc(C(=O)CC2(O)C(=O)Nc3c(Cl)ccc(Cl)c32)c(OC)c1OC (centres unmarked) [PT-1-23]
11.1 µM	2.7 µM	3.57 µM				CCOc1ccc(C(=O)CC2(O)C(=O)Nc3c(Cl)ccc(Cl)c32)cc1 (centres unmarked) [PT-1-14]
≥ 40 µM	≥ 40 µM	≥ 40 µM				COc1cccc(C(=O)CC2(O)C(=O)Nc3c(Cl)ccc(Cl)c32)c1OC (centres unmarked) [PT-1-20]
≥ 40 µM	≥ 40 µM	≥ 40 µM				O=C(CC1(O)C(=O)Nc2c(Cl)ccc(Cl)c21)c1ccc(F)cc1 (centres unmarked) [YK-4-278]
28.1 µM	0.982 µM	0.909 µM	1.2 µM		1.41 µM	CSc1ccc(C(=O)CC2(O)C(=O)Nc3c(Cl)ccc(Cl)c32)cc1 (centres unmarked) [PT-1-67]
≥ 40 µM	≥ 40 µM	≥ 40 µM				COc1ccc(C(=O)CC2(O)C(=O)Nc3cc(Br)cc(Br)c32)cc1 (centres unmarked) [PT-1-271]
2.85 µM	1.19 µM	2.14 µM	1.61 µM	5.16 µM	1.6 µM	COc1ccc(C(=O)/C=C2\C(=O)Nc3c(Cl)ccc(Cl)c32)c(OC)c1OC [PT-1-41]
≥ 40 µM	≥ 40 µM	≥ 40 µM				COc1ccc(C(=O)CC2(O)C(=O)Nc3ccccc32)cc1 (centres unmarked) [PT-1-267]
≥ 40 µM	≥ 40 µM	≥ 40 µM				C/C=C1\NC(=O)C(O)(CC(=O)c2ccc(OC)cc2)\C1=C/C (centres unmarked) [PT-2-37]
≥ 40 µM	≥ 40 µM	≥ 40 µM				Nc1ccc(C(=O)CC2(O)C(=O)Nc3c(Cl)ccc(Cl)c32)cc1 (centres unmarked) [YK-4-284]
	0.291 µM		0.383 µM			CN(C)c1ccc(C(=O)/C=C2\C(=O)Nc3c(Cl)ccc(Cl)c32)cc1 [PT-1-38]
≥ 40 µM	≥ 40 µM	≥ 40 µM				COc1ccc(C(=O)CC2(OC)C(=O)Nc3c(Cl)ccc(Cl)c32)cc1 (centres unmarked) [PT-2-78]
≥ 40 µM	12.1 µM	30.1 µM				Cc1ccc(C(=O)CC2(O)C(=O)Nc3c(Cl)ccc(Cl)c32)cc1 (centres unmarked) [YK-4-280]
≥ 40 µM	≥ 40 µM	≥ 40 µM				COc1ccc(C(=O)CC2(O)C(=O)Nc3c(Cl)ccc(Cl)c32)cc1OC (centres unmarked) [PT-1-21]
≥ 40 µM	≥ 40 µM	≥ 40 µM				O=C(CC1(O)C(=O)Nc2c(Cl)ccc(Cl)c21)c1ccc(Oc2ccccc2)cc1 (centres unmarked) [PT-1-60]
≥ 40 µM	3 µM	9.35 µM				O=C(CC1(O)C(=O)Nc2c(Cl)ccc(Cl)c21)c1ccc(Cl)c(Cl)c1Cl (centres unmarked) [YK-4-288]
22.9 µM	2.61 µM	2.82 µM				COc1ccc(C(=O)CC2(O)C(=O)Nc3c(Cl)ccc(Cl)c32)c(OC)c1 (centres unmarked) [PT-1-19]
11.2 µM	12.1 µM	17 µM				COc1ccc(C(=O)CC2(OC)C(=O)N(C)c3c(Cl)ccc(Cl)c32)cc1 (centres unmarked) [PT-2-79]
12.6 µM	6.32 µM	15.8 µM				O=C(CC1(O)C(=O)Nc2c(Cl)ccc(Cl)c21)c1ccc(Cl)c(Cl)c1 (centres unmarked) [YK-4-287]
	1.5 µM	1.36 µM	2.57 µM		2.2 µM	COc1ccc(C(=O)/C=C2/C(=O)Nc3c(Cl)ccc(Cl)c32)cc1 [PT-1-54]
